# Measurements reported in patent US10059655B2, “Lipids and lipid compositions for the delivery of active agents” (priority 2013, dated 2018).
# Assay: Measurement of mRNA encapsulation in lipid nanoparticles (Quant-iT Ribogreen)
# Format: physicochemical
# Conditions: Leptin mRNA in LNP
# Experimental: All equipment and disposable supplies are certified free of RNase activity by the manufacturer or rendered RNase free by use of the RNaseZap reagent (LifeTechnologies). mRNA is encapsulated at a cationic lipid amine to mRNA phosphate (N:P) molar ratio of 4:1. Lipids (cationic lipid, DSPC, cholesterol and lipidated PEG or stealth lipid) are dissolved in ethanol. The molar ratios are 40:10:38:2, respectively. The mixture is sonicated briefly, then gently agitated for 5 minutes and then maintained at 37° C. until use. mRNA is exchanged into citrate buffer pH 5.8-6.0 by use of Amicon Ultra-15 centrifugal concentrators, and the final concentration is adjusted to 0.5 mg/ml and held at 37° C. until use. An equal volume of lipids in ethanol, mRNA in citrate buffer, and citrate buffer alone are drawn into disposable syringes.
# Tubing leading from syringes containing lipids and mRNA are attached to the T junction, and tubing leading from the syringe containing citrate buffer alone is paired with the tubing exiting the T-junction over a collection vessel containing a stir bar on an active stir plate. Syringes are placed in a syringe pump set to expel contents at a flow rate of 1 ml per minute. The pump is activated, and the collected mRNA in lipid nanoparticles is transferred to SnakeSkin dialysis tubing (10,000 MWCO, Thermo Scientific). Material is dialyzed against RNAse- and pyrogen-free 1× phosphate buffered saline overnight at 4° C.
# Percent encapsulation of mRNA in lipid nanoparticles is determined using the Quant-iT Ribogreen RNA Assay kit (Life Technologies). The LNP-mRNA suspension is assayed in buffer (mRNA outside the particle), and buffer plus Triton X-100 detergent (total mRNA). The difference calculated is the mRNA inside the particle. Prepare a 1000 ng/mL stock from the RNA provided in the kit and use this to generate a standard curve (0 ng/ml, 15.63-1000 ng/ml) in TE and TE+0.75% Triton X-100. Prepare LNP-mRNA samples in TE buffer and TE buffer+0.75% Triton X-100 with appropriate dilution so that reading is in the range of standard curve (400-2,000 fold). In a 384-well plate (Costar non-treated #3573) add 0.04 ml of standard (in duplicate) or sample (in triplicate) per well. Dilute Ribogreen reagent 240-fold in TE buffer and add 0.06 ml per well. Mix contents of wells and measure fluorescence (excitation=480 nm, emission=520 nm). Subtract background values (no RNA) from standard and test sample values and determine the concentrations of RNA in the samples using the standard curves. Determine the percent encapsulation of the sample by dividing the difference in concentrations between sample+triton and sample in buffer alone by the sample+triton concentration.
row,SMILES,% encapsulation mRNA Leptin [%]
1,"CCCCCCCCOC(CCC(=O)OCC(COC(=O)CCC(OCCCCCCCC)OCCCCCCCC)COC(=O)C1(C)CCN(C)C1)OCCCCCCCC (centres unmarked) [Example 58, 2-(((1,3-dimethylpyrrolidine-3-carbonyl)oxy)methyl)propane-1,3-diyl bis(4,4-bis(octyloxy)butanoate)]",86.0
2,"CCCCCCCCOC(CCC(=O)OCC(COC(=O)CCC(OCCCCCCCC)OCCCCCCCC)COC(=O)CCN(C)C)OCCCCCCCC [Example 59, 2-(((3-(dimethylamino)propanoyl)oxy)methyl)propane-1,3-diyl bis(4,4-bis(octyloxy)butanoate)]",76.6
3,"CCCCCCCCOC(CCCCC(=O)OCC(COC(=O)CCCCC(OCCCCCCCC)OCCCCCCCC)COC(=O)C1CCN(C)C1)OCCCCCCCC (centres unmarked) [Example 60, 2-(((1-methylpyrrolidine-3-carbonyl)oxy)methyl)propane-1,3-diyl bis(6,6-bis(octyloxy)hexanoate)]",89.1
4,"CCCCCCCCCCCCCCCC(=O)OCC(COC(=O)CCCCC(COC(=O)CCCCCCC)COC(=O)CCCCCCC)COC(=O)C1CCN(C)C1 (centres unmarked) [Example 63, 2-(5-(3-((1-methylpyrrolidine-3-carbonyl)oxy)-2-((palmitoyloxy)methyl)propoxy)-5-oxopentyl)propane-1,3-diyl dioctanoate]",18.8
5,"CCCCCCCCCCCCCC(=O)OCC(COC(=O)CCCCC(COC(=O)CCCCCCC)COC(=O)CCCCCCC)COC(=O)C1CCN(C)C1 (centres unmarked) [Example 64, 2-(5-(3-((1-methylpyrrolidine-3-carbonyl)oxy)-2-((tetradecanoyloxy)methyl)propoxy)-5-oxopentyl)propane-1,3-diyl dioctanoate]",87.9
6,"CCCCCCCCCCCCCC(=O)OCC(COC(=O)CCC(OCCCCCCCC)OCCCCCCCC)COC(=O)C1CCN(C)C1 (centres unmarked) [Example 66, 3-((4,4-bis(octyloxy)butanoyl)oxy)-2-((tetradecanoyloxy)methyl)propyl 1-methylpyrrolidine-3-carboxylate]",70.5

# More lines, now with the values ahead:
row,% encapsulation mRNA Leptin [%],SMILES
1,62.8,"CCCCCCCCCCCCCCCC(=O)OCC(COC(=O)CCC(OCCCCCCCC)OCCCCCCCC)COC(=O)C1CCN(C)C1 (centres unmarked) [Example 67, 3-((4,4-bis(octyloxy)butanoyl)oxy)-2-((palmitoyloxy)methyl)propyl 1-methylpyrrolidine-3-carboxylate]"
2,5.9,"CCCCCCCCOC(CCC(=O)OCC(COC(=O)CCCCCCC(=O)OC)COC(=O)C1CCN(C)C1)OCCCCCCCC (centres unmarked) [Example 68, 1-(3-((4,4-bis(octyloxy)butanoyl)oxy)-2-(((1-methylpyrrolidine-3-carbonyl)oxy)methyl)propyl) 8-methyl octanedioate]"
3,79.3,"CCCCCCCCOC(=O)CCCCCCCCC(=O)OCC(COC(=O)CCC(OCCCCCCCC)OCCCCCCCC)COC(=O)C1CCN(C)C1 (centres unmarked) [Example 69, 1-(3-((4,4-bis(octyloxy)butanoyl)oxy)-2-(((1-methylpyrrolidine-3-carbonyl)oxy)methyl)propyl) 10-octyl decanedioate]"
4,92.1,"CCCCCCCCCCCCC(CCOC(=O)OCC(COC(=O)CCCCCCC(=O)OC)COC(=O)CCC(OCCCCCCCC)OCCCCCCCC)OC(=O)OCCCN(C)C (centres unmarked) [Example 70, 1-(16-(((4,4-bis(octyloxy)butanoyl)oxy)methyl)-9-dodecyl-2-methyl-7,13-dioxo-6,8,12,14-tetraoxa-2-azaheptadecan-17-yl) 8-methyl octanedioate]"
5,96.5,"CCCCCCCCOC(=O)CCCCCCCCC(=O)OCC(COC(=O)CCCCC(OCC(CCC)CCC)OCC(CCC)CCC)COC(=O)C1(C)CCN(C)CC1 (centres unmarked) [Example 71, 1-(3-((6,6-bis((2-propylpentyl)oxy)hexanoyl)oxy)-2-(((1,4-dimethylpiperidine-4-carbonyl)oxy)methyl)propyl) 10-octyl decanedioate]"
